Experimental data published in ChEMBL document CHEMBL1201862, “PubChem BioAssay data set” (2004).
Structures can show the parent of a compound that is named as a salt.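 All cell lines were grown in 96-well plates and treated with compound for 48 hours. GI50: concentration for 50% inhibition of growth.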 The source made the active and inactive calls. No stated cut-off is given here; in the data, active = GI50 up to about 1.1 µM and inactive = higher.

Tests used:
Experiment in all cases: NCI-60 cell line screen, 48 h
MDA-MB-231 = test system: MDA-MB-231
OVCAR-3 = test system: OVCAR-3
M14 = test system: M14
RPMI-8226 = test system: RPMI-8226
SK-OV-3 = test system: SK-OV-3
RXF 393 = test system: RXF 393
EKVX = test system: EKVX
786-0 = test system: 786-0
KM12 = test system: KM12
NCI-H460 = test system: NCI-H460
UACC-62 = test system: UACC-62
SNB-75 = test system: SNB-75
SN12C = test system: SN12C
NCI/ADR-RES = test system: NCI/ADR-RES
NCI-H522 = test system: NCI-H522
UO-31 = test system: UO-31
Hs-578T = test system: Hs-578T
A549 = test system: A549
COLO 205 = test system: COLO 205
MOLT-4 = test system: MOLT-4

Measured: GI50

CC1OC(OC2C(O)COC(OC3C(C)OC(OC4C(OC(=O)[C@]56CCC(C)(C)C[C@@H]5C5=CCC7[C@@]8(C)C[C@H](O)[C@H](OC9OC(CO)C(O)C(O)C9O)[C@@](C)(CO)[C@@H]8CC[C@@]7(C)[C@]5(C)CC6)OCC(O)C4O)C(O)C3OC3OCC(O)(CO)C3O)C2O)C(O)C(O)C1O (stereo not given in full)
inactive: MDA-MB-231 12.6 µM | OVCAR-3 18.9 µM | M14 3.33 µM | RPMI-8226 29.2 µM | SK-OV-3 17.7 µM | RXF 393 14.7 µM | EKVX 4.16 µM | 786-0 12.4 µM | KM12 18.8 µM | NCI-H460 18.7 µM | UACC-62 13.2 µM | SNB-75 21 µM | SN12C 4.3 µM | NCI/ADR-RES 18.8 µM | NCI-H522 16.1 µM | UO-31 3.36 µM | Hs-578T 7.48 µM | A549 4.62 µM | COLO 205 2.51 µM | MOLT-4 15.7 µM

CCOC(=O)CSc1nc(-c2ccc(OC)cc2)c(C#N)c(=O)[nH]1
inactive: MDA-MB-231 > 100 µM | OVCAR-3 > 100 µM | M14 > 100 µM | RPMI-8226 > 100 µM | SK-OV-3 > 100 µM | RXF 393 > 100 µM | EKVX > 100 µM | 786-0 > 100 µM | KM12 > 100 µM | NCI-H460 > 100 µM | UACC-62 > 100 µM | SNB-75 > 100 µM | SN12C > 100 µM | NCI/ADR-RES > 100 µM | NCI-H522 > 100 µM | UO-31 51.9 µM | Hs-578T > 100 µM | A549 > 100 µM | COLO 205 > 100 µM | MOLT-4 > 100 µM

Cc1ccccc1C(=O)C#Cc1cn(C2CC(O)C(CO)O2)c(=O)[nH]c1=O (stereo not given)
inactive: MDA-MB-231 > 100 µM | OVCAR-3 > 100 µM | M14 > 100 µM | RPMI-8226 > 100 µM | SK-OV-3 > 100 µM | RXF 393 > 100 µM | EKVX > 100 µM | 786-0 > 100 µM | KM12 > 100 µM | NCI-H460 > 100 µM | UACC-62 > 100 µM | SNB-75 > 100 µM | SN12C > 100 µM | NCI/ADR-RES > 100 µM | NCI-H522 14.7 µM | UO-31 > 100 µM | Hs-578T > 100 µM | A549 > 100 µM | COLO 205 > 100 µM | MOLT-4 16.1 µM

C=CCC1NCCC2=C1C(S(=O)(=O)c1ccc(C)cc1)c1ccccc12 (stereo not given)
inactive: MDA-MB-231 12.1 µM | OVCAR-3 12.5 µM | M14 11.8 µM | RPMI-8226 5.55 µM | SK-OV-3 16.6 µM | RXF 393 5.66 µM | EKVX 18 µM | 786-0 12.9 µM | KM12 9.46 µM | NCI-H460 11.7 µM | UACC-62 11.7 µM | SNB-75 5.64 µM | SN12C 14.4 µM | NCI/ADR-RES 12.6 µM | NCI-H522 10.1 µM | UO-31 7.67 µM | Hs-578T 13.7 µM | A549 15.1 µM | COLO 205 2 µM | MOLT-4 6.56 µM

C/C(=N\NS(=O)(=O)c1ccc(C)cc1)C(CN(C)C)C(c1ccccc1)c1c(O)c2ccccc2oc1=O (stereo not given)
inactive: MDA-MB-231 > 100 µM | OVCAR-3 > 100 µM | M14 > 100 µM | RPMI-8226 > 95.9 µM | SK-OV-3 99.1 µM | RXF 393 55.2 µM | EKVX > 100 µM | 786-0 > 100 µM | KM12 > 100 µM | NCI-H460 > 100 µM | UACC-62 > 86.3 µM | SNB-75 > 51.9 µM | SN12C > 100 µM | NCI/ADR-RES > 100 µM | NCI-H522 > 100 µM | UO-31 > 81.7 µM | Hs-578T > 100 µM | A549 > 100 µM | COLO 205 > 95.3 µM | MOLT-4 > 100 µM

CCOC(=O)CNC1=NNS(=O)(=O)c2ccccc21
inactive: MDA-MB-231 > 100 µM | OVCAR-3 > 100 µM | M14 > 100 µM | RPMI-8226 > 100 µM | SK-OV-3 > 100 µM | RXF 393 > 100 µM | EKVX > 100 µM | 786-0 > 100 µM | KM12 > 100 µM | NCI-H460 32.6 µM | UACC-62 > 100 µM | SNB-75 > 100 µM | SN12C > 100 µM | NCI/ADR-RES > 100 µM | NCI-H522 > 100 µM | UO-31 > 100 µM | Hs-578T > 100 µM | A549 > 100 µM | COLO 205 > 100 µM | MOLT-4 54.1 µM

O=S1(=O)OCc2ccccc21
inactive: MDA-MB-231 20.8 µM | OVCAR-3 32.5 µM | M14 > 100 µM | RPMI-8226 61.1 µM | SK-OV-3 > 100 µM | RXF 393 > 100 µM | EKVX > 100 µM | 786-0 60.1 µM | KM12 > 100 µM | NCI-H460 34.4 µM | UACC-62 80.2 µM | SNB-75 42.8 µM | SN12C > 100 µM | NCI/ADR-RES > 100 µM | NCI-H522 79.8 µM | UO-31 > 100 µM | Hs-578T > 100 µM | A549 > 100 µM | COLO 205 > 100 µM | MOLT-4 15.7 µM

CC(=O)N(C)c1ccc(Nc2cc(C)nc3ccc4nc[nH]c4c23)cc1 [ACODAZOLE HYDROCHLORIDE]
inactive: MDA-MB-231 13.6 µM | OVCAR-3 8.63 µM | M14 10.8 µM | RPMI-8226 8.07 µM | SK-OV-3 10.5 µM | RXF 393 9.25 µM | EKVX 18.7 µM | 786-0 4.81 µM | KM12 7.96 µM | NCI-H460 2.59 µM | UACC-62 10.2 µM | SNB-75 9.33 µM | SN12C 7.21 µM | NCI/ADR-RES 156 µM | NCI-H522 7.38 µM | UO-31 12.2 µM | Hs-578T 9.14 µM | A549 7.59 µM | COLO 205 4.38 µM | MOLT-4 1.72 µM
